{"source": "patent US20110178396A1", "about": "“Nicotinamide Derivatives” (CRC FOR BIOMEDICAL IMAGING DEVELOPMENT LTD., priority 2008, published 2011)", "tested_on": "B16F0 melanoma tumour", "test": "Biodistribution in B16 melanoma bearing mice", "type": "in vivo, C57BL/6J mice", "details": "B16 melanoma bearing mice", "how_it_was_run": "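B16F0 tumours in C57BL/6J mice (day 11) and A375 xenografts in BALB/c nude mice (day 25), subcutaneous left flank. Radiotracer given i.v. by tail vein (18F 0.5–1.5 MBq; 123I 0.37–0.74 MBq); n=5 per time point, 15 min–6 h (18F) or 1–72 h (123I). Organs γ-counted as % ID/g.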", "data": [{"smiles": "CCN(CC)CCNC(=O)c1ccc(F)nc1", "note": "[[^18F]MEL2, 6-Fluoro-N-[2-(diethylamino)ethyl]nicotinamide]", "values": [{"measurement": "uptake BLOOD", "setting": "15 min", "value": 2.048, "unit": "% ID/g"}, {"measurement": "uptake BONE", "setting": "15 min", "value": 3.493, "unit": "% ID/g"}, {"measurement": "uptake BRAIN", "setting": "15 min", "value": 2.471, "unit": "% ID/g"}, {"measurement": "uptake EYES", "setting": "15 min", "value": 14.678, "unit": "% ID/g"}, {"measurement": "uptake GIT", "setting": "15 min", "value": 5.421, "unit": "% ID/g"}, {"measurement": "uptake HEART", "setting": "15 min", "value": 3.153, "unit": "% ID/g"}, {"measurement": "uptake KIDNEY", "setting": "15 min", "value": 14.117, "unit": "% ID/g"}, {"measurement": "uptake LIVER", "setting": "15 min", "value": 10.148, "unit": "% ID/g"}, {"measurement": "uptake LUNGS", "setting": "15 min", "value": 5.616, "unit": "% ID/g"}, {"measurement": "uptake MUSCLE", "setting": "15 min", "value": 3.796, "unit": "% ID/g"}, {"measurement": "uptake SKIN", "setting": "15 min", "value": 2.214, "unit": "% ID/g"}, {"measurement": "uptake SPLEEN", "setting": "15 min", "value": 8.585, "unit": "% ID/g"}, {"measurement": "uptake STOMACH", "setting": "15 min", "value": 9.344, "unit": "% ID/g"}, {"measurement": "uptake THYROID", "setting": "15 min", "value": 5.515, "unit": "% ID/g"}, {"measurement": "uptake TUMOUR", "setting": "15 min", "value": 6.970, "unit": "% ID/g"}, {"measurement": "uptake BLOOD", "setting": "30 min", "value": 1.218, "unit": "% ID/g"}, {"measurement": "uptake BONE", "setting": "30 min", "value": 2.078, "unit": "% ID/g"}, {"measurement": "uptake BRAIN", "setting": "30 min", "value": 1.997, "unit": "% ID/g"}, {"measurement": "uptake EYES", "setting": "30 min", "value": 15.976, "unit": "% ID/g"}, {"measurement": "uptake GIT", "setting": "30 min", "value": 3.855, "unit": "% ID/g"}, {"measurement": "uptake HEART", "setting": "30 min", "value": 1.902, "unit": "% ID/g"}, {"measurement": "uptake KIDNEY", "setting": "30 min", "value": 9.595, "unit": "% ID/g"}, {"measurement": "uptake LIVER", "setting": "30 min", "value": 5.825, "unit": "% ID/g"}, {"measurement": "uptake LUNGS", "setting": "30 min", "value": 2.922, "unit": "% ID/g"}, {"measurement": "uptake MUSCLE", "setting": "30 min", "value": 2.240, "unit": "% ID/g"}, {"measurement": "uptake SKIN", "setting": "30 min", "value": 1.473, "unit": "% ID/g"}, {"measurement": "uptake SPLEEN", "setting": "30 min", "value": 7.225, "unit": "% ID/g"}, {"measurement": "uptake STOMACH", "setting": "30 min", "value": 6.639, "unit": "% ID/g"}, {"measurement": "uptake THYROID", "setting": "30 min", "value": 2.537, "unit": "% ID/g"}, {"measurement": "uptake TUMOUR", "setting": "30 min", "value": 8.582, "unit": "% ID/g"}, {"measurement": "uptake BLOOD", "setting": "1 h", "value": 0.619, "unit": "% ID/g"}, {"measurement": "uptake BONE", "setting": "1 h", "value": 1.368, "unit": "% ID/g"}, {"measurement": "uptake BRAIN", "setting": "1 h", "value": 1.096, "unit": "% ID/g"}, {"measurement": "uptake EYES", "setting": "1 h", "value": 18.808, "unit": "% ID/g"}, {"measurement": "uptake GIT", "setting": "1 h", "value": 2.102, "unit": "% ID/g"}, {"measurement": "uptake HEART", "setting": "1 h", "value": 0.977, "unit": "% ID/g"}, {"measurement": "uptake KIDNEY", "setting": "1 h", "value": 3.446, "unit": "% ID/g"}, {"measurement": "uptake LIVER", "setting": "1 h", "value": 2.813, "unit": "% ID/g"}, {"measurement": "uptake LUNGS", "setting": "1 h", "value": 1.632, "unit": "% ID/g"}, {"measurement": "uptake MUSCLE", "setting": "1 h", "value": 1.248, "unit": "% ID/g"}, {"measurement": "uptake SKIN", "setting": "1 h", "value": 0.766, "unit": "% ID/g"}, {"measurement": "uptake SPLEEN", "setting": "1 h", "value": 2.393, "unit": "% ID/g"}, {"measurement": "uptake STOMACH", "setting": "1 h", "value": 3.370, "unit": "% ID/g"}, {"measurement": "uptake THYROID", "setting": "1 h", "value": 3.327, "unit": "% ID/g"}, {"measurement": "uptake TUMOUR", "setting": "1 h", "value": 8.376, "unit": "% ID/g"}, {"measurement": "uptake BLOOD", "setting": "2 h", "value": 0.147, "unit": "% ID/g"}, {"measurement": "uptake BONE", "setting": "2 h", "value": 0.578, "unit": "% ID/g"}, {"measurement": "uptake BRAIN", "setting": "2 h", "value": 0.270, "unit": "% ID/g"}, {"measurement": "uptake EYES", "setting": "2 h", "value": 17.281, "unit": "% ID/g"}, {"measurement": "uptake GIT", "setting": "2 h", "value": 0.708, "unit": "% ID/g"}, {"measurement": "uptake HEART", "setting": "2 h", "value": 0.246, "unit": "% ID/g"}, {"measurement": "uptake KIDNEY", "setting": "2 h", "value": 0.676, "unit": "% ID/g"}, {"measurement": "uptake LIVER", "setting": "2 h", "value": 0.693, "unit": "% ID/g"}, {"measurement": "uptake LUNGS", "setting": "2 h", "value": 0.386, "unit": "% ID/g"}, {"measurement": "uptake MUSCLE", "setting": "2 h", "value": 0.276, "unit": "% ID/g"}, {"measurement": "uptake SKIN", "setting": "2 h", "value": 0.356, "unit": "% ID/g"}, {"measurement": "uptake SPLEEN", "setting": "2 h", "value": 1.848, "unit": "% ID/g"}, {"measurement": "uptake STOMACH", "setting": "2 h", "value": 1.472, "unit": "% ID/g"}, {"measurement": "uptake THYROID", "setting": "2 h", "value": 0.609, "unit": "% ID/g"}, {"measurement": "uptake TUMOUR", "setting": "2 h", "value": 9.416, "unit": "% ID/g"}, {"measurement": "uptake BLOOD", "setting": "3 h", "value": 0.111, "unit": "% ID/g"}, {"measurement": "uptake BONE", "setting": "3 h", "value": 0.624, "unit": "% ID/g"}, {"measurement": "uptake BRAIN", "setting": "3 h", "value": 0.150, "unit": "% ID/g"}, {"measurement": "uptake EYES", "setting": "3 h", "value": 17.276, "unit": "% ID/g"}, {"measurement": "uptake GIT", "setting": "3 h", "value": 0.541, "unit": "% ID/g"}, {"measurement": "uptake HEART", "setting": "3 h", "value": 0.166, "unit": "% ID/g"}, {"measurement": "uptake KIDNEY", "setting": "3 h", "value": 0.394, "unit": "% ID/g"}, {"measurement": "uptake LIVER", "setting": "3 h", "value": 0.491, "unit": "% ID/g"}, {"measurement": "uptake LUNGS", "setting": "3 h", "value": 0.253, "unit": "% ID/g"}, {"measurement": "uptake MUSCLE", "setting": "3 h", "value": 0.201, "unit": "% ID/g"}, {"measurement": "uptake SKIN", "setting": "3 h", "value": 0.172, "unit": "% ID/g"}, {"measurement": "uptake SPLEEN", "setting": "3 h", "value": 0.890, "unit": "% ID/g"}, {"measurement": "uptake STOMACH", "setting": "3 h", "value": 0.828, "unit": "% ID/g"}, {"measurement": "uptake THYROID", "setting": "3 h", "value": 0.488, "unit": "% ID/g"}, {"measurement": "uptake TUMOUR", "setting": "3 h", "value": 7.753, "unit": "% ID/g"}, {"measurement": "uptake BLOOD", "setting": "6 h", "value": 0.020, "unit": "% ID/g"}, {"measurement": "uptake BONE", "setting": "6 h", "value": 0.515, "unit": "% ID/g"}, {"measurement": "uptake BRAIN", "setting": "6 h", "value": 0.039, "unit": "% ID/g"}, {"measurement": "uptake EYES", "setting": "6 h", "value": 15.591, "unit": "% ID/g"}, {"measurement": "uptake GIT", "setting": "6 h", "value": 0.135, "unit": "% ID/g"}, {"measurement": "uptake HEART", "setting": "6 h", "value": 0.054, "unit": "% ID/g"}, {"measurement": "uptake KIDNEY", "setting": "6 h", "value": 0.075, "unit": "% ID/g"}, {"measurement": "uptake LIVER", "setting": "6 h", "value": 0.123, "unit": "% ID/g"}, {"measurement": "uptake LUNGS", "setting": "6 h", "value": 0.066, "unit": "% ID/g"}, {"measurement": "uptake MUSCLE", "setting": "6 h", "value": 0.032, "unit": "% ID/g"}, {"measurement": "uptake SKIN", "setting": "6 h", "value": 0.041, "unit": "% ID/g"}, {"measurement": "uptake SPLEEN", "setting": "6 h", "value": 0.470, "unit": "% ID/g"}, {"measurement": "uptake STOMACH", "setting": "6 h", "value": 0.193, "unit": "% ID/g"}, {"measurement": "uptake THYROID", "setting": "6 h", "value": 0.168, "unit": "% ID/g"}, {"measurement": "uptake TUMOUR", "setting": "6 h", "value": 7.747, "unit": "% ID/g"}, {"measurement": "uptake in melanin containing tissue (tumour and eyes)", "setting": "six hour period", "value": "high uptake"}, {"measurement": "washout in all other tissue", "setting": "six hour period", "value": "rapid washout"}]}]}
